Some test systems named below: NCI-H226 lung; RXF 393 renal; SF-539 CNS; EKVX NSCLC; SW-620 colon; KM12 colon; SK-OV-3 ovarian; MOLT-4 leukemia; IGROV1 ovarian; PC-3 prostate.
Experiment in all cases: NCI-60 cell line screen, 48 h

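All cell lines were grown in 96-well plates and treated with compound for 48 hours. The concentration for 50% growth inhibition is given as GI50. TGI: total growth inhibition.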

With `O=C1NC(O)CCN1C1OC(CO)C(O)C1O` (configuration not stated), the TGI in the test on NCI-H226 lung, with RXF 393 renal, in the test with SF-539 CNS, in the test with EKVX NSCLC, with SW-620 colon and in the test with KM12 colon was more than 250 µM throughout. Moreover, the TGI in the test on SK-OV-3 ovarian, with MOLT-4 leukemia and in the test with IGROV1 ovarian was more than 250 µM each time.

For `COc1cc(C2c3cc4c(cc3[C@@H](Nc3ccccc3)C3COC(=O)[C@H]23)OCO4)cc(OC)c1O` (some centres not stated), the TGI is 2.12 µM with NCI-H226 lung; 6.8 µM in the test on RXF 393 renal; 1.8 µM in the test with SF-539 CNS; 8.47 µM in the test on EKVX NSCLC; more than 42.9 µM with SW-620 colon; 4.69 µM in the test on KM12 colon. Also, the TGI is 4.87 µM in the test on SK-OV-3 ovarian, 0.13 µM in the test on MOLT-4 leukemia and 17.5 µM with IGROV1 ovarian.

Consider `O=C(NCCCl)O/N=C/c1cccnc1`, for which the TGI with NCI-H226 lung, with RXF 393 renal, in the test with SF-539 CNS, in the test with EKVX NSCLC, with SW-620 colon and in the test on KM12 colon was more than 100 µM in each case. Further, the TGI in the test with SK-OV-3 ovarian, in the test with MOLT-4 leukemia and in the test on IGROV1 ovarian was more than 100 µM in each case. In the test with RXF 393 renal, the GI50 was more than 100 µM.

Take `COc1cc(C=O)ccc1O`: the TGI in the test with PC-3 prostate, in the test with NCI-H226 lung, in the test on SF-539 CNS, in the test with EKVX NSCLC, in the test with SW-620 colon and in the test with KM12 colon was more than 100 µM in each case. The TGI in the test with MOLT-4 leukemia and with IGROV1 ovarian was more than 100 µM each time.

For the compound `CC(C)(CO)CNc1nc(N)nc(Cl)c1/C=N/O`, the TGI in the test on PC-3 prostate, in the test with NCI-H226 lung, in the test on RXF 393 renal, in the test on SF-539 CNS, in the test with EKVX NSCLC and in the test with SW-620 colon was more than 100 µM throughout. The figures for the TGI in the test on KM12 colon, with MOLT-4 leukemia and in the test on IGROV1 ovarian were more than 100 µM, more than 100 µM and 90.8 µM, respectively.

With `CSc1csc(-c2ccc(-c3ccc(-c4cc(SC)cs4)s3)s2)c1`, the TGI with PC-3 prostate, in the test with NCI-H226 lung, in the test on SF-539 CNS, with EKVX NSCLC, in the test on SW-620 colon and in the test with KM12 colon was more than 100 µM each time. Also, the TGI in the test with SK-OV-3 ovarian, with MOLT-4 leukemia and in the test on IGROV1 ovarian was more than 100 µM throughout.

For `CC(C)C1=CC23CCC4C(C)(C(=O)O)CCCC4(C)C2CC1C1C(=O)N(CCCCCCN2C(=O)C4C5CC6C7(C)CCCC(C)(C(=O)O)C7CCC6(C=C5C(C)C)C4C2=O)C(=O)C13` (configuration not stated), the TGI in the test with PC-3 prostate was 19 µM; in the test on RXF 393 renal, 28.3 µM; with EKVX NSCLC, 21.6 µM; in the test with SW-620 colon it was 33.4 µM; with KM12 colon, 23.9 µM; with MOLT-4 leukemia, 30.1 µM.

`C=C(C)CNCCN`: the TGI in the test on PC-3 prostate, with NCI-H226 lung, in the test on RXF 393 renal, in the test with EKVX NSCLC, with SW-620 colon and with KM12 colon was more than 100 µM throughout. Moreover, the TGI with MOLT-4 leukemia and in the test with IGROV1 ovarian was more than 100 µM in each case.

For `CCOC(=O)CNC(=O)NC12CC3CC(CC(C3)C1)C2`, the TGI is more than 473 µM in the test with NCI-H226 lung; 259 µM with RXF 393 renal; more than 550 µM with SF-539 CNS; more than 347 µM in the test with EKVX NSCLC; more than 550 µM with SW-620 colon; more than 449 µM with KM12 colon. Further, the TGI in the test on SK-OV-3 ovarian was more than 517 µM; with MOLT-4 leukemia, more than 550 µM; with IGROV1 ovarian, more than 550 µM.

On to `CC(C)(C)c1ccc2c(c1)C#Cc1cc3c(cc1OCCCO2)C#Cc1cc(C(C)(C)C)ccc1OCCCO3`, for which the TGI in the test on PC-3 prostate, in the test with RXF 393 renal, in the test on SF-539 CNS, in the test on EKVX NSCLC, in the test on SW-620 colon and in the test on KM12 colon was more than 100 µM each time. For the same compound, the TGI in the test with SK-OV-3 ovarian, with MOLT-4 leukemia and in the test with IGROV1 ovarian was more than 100 µM in each case.

Consider `Cn1ncc2c(NCc3ccccc3)ncnc21`, for which the TGI with NCI-H226 lung, in the test with RXF 393 renal, in the test with SF-539 CNS, in the test with EKVX NSCLC, in the test with SW-620 colon and with KM12 colon was more than 100 µM throughout. Further, the TGI in the test on SK-OV-3 ovarian, in the test with MOLT-4 leukemia and with IGROV1 ovarian was more than 100 µM each time.

As to `O[C@H]1[C@H](O)[C@@H](O)CN2CC[C@H](O)[C@H]12`, the TGI in the test with NCI-H226 lung, with RXF 393 renal, in the test with SF-539 CNS, in the test on EKVX NSCLC, in the test with SW-620 colon and with KM12 colon was more than 100 µM each time. Also, the TGI in the test on SK-OV-3 ovarian, in the test on MOLT-4 leukemia and with IGROV1 ovarian was more than 100 µM each time.

Take `CCOC(=O)/C=C1/C(CCCOCc2ccccc2)C2CCCC23CC2(CCN13)OCCO2` (configuration not stated): the TGI is 66.7 µM in the test with NCI-H226 lung; 37.5 µM in the test with RXF 393 renal; more than 100 µM in the test with EKVX NSCLC; more than 100 µM in the test with SW-620 colon; 58 µM in the test with KM12 colon; 82.9 µM with SK-OV-3 ovarian. For the same compound, the TGI in the test on MOLT-4 leukemia is 33.2 µM; in the test on IGROV1 ovarian, more than 100 µM.

As to `O=C1CSC2(CC(/C=C/c3cccs3)=NN2c2cccc(S(=O)(=O)O)c2)N1c1nc2ccccc2s1` (configuration not stated), the TGI with PC-3 prostate, with NCI-H226 lung, in the test on RXF 393 renal, in the test on SF-539 CNS, in the test with EKVX NSCLC and with SW-620 colon was more than 100 µM throughout. Besides, the TGI in the test on KM12 colon, in the test on MOLT-4 leukemia and with IGROV1 ovarian was more than 100 µM each time.

As to `O=C(NN1C(=O)CS(=O)(=O)C1c1ccc(C(F)(F)F)cc1)c1ccncc1` (configuration not stated), the TGI with NCI-H226 lung, in the test on RXF 393 renal, with SW-620 colon, in the test on KM12 colon, in the test on SK-OV-3 ovarian and with MOLT-4 leukemia was more than 100 µM in each case.

The record behind these values is PubChem BioAssay (NCI).
